Results taken from ChEMBL document CHEMBL3392967, “Phosphatidylinositol 3-Kinase (PI3K) and phosphatidylinositol 3-kinase-related kinase (PIKK) inhibitors: importance of the morpholine ring” (J Med Chem, 2015).
Several values for one entry are separate records, joined by “and”; a condition that tells them apart may be missing. Equal values may be shown once. Blank lines part the entries; values can stand above or below the compound they belong to.

Columns and labels:
[1] = target: Phosphatidylinositol 4,5-bisphosphate 3-kinase catalytic subunit alpha isoform (Homo sapiens, UniProt P42336)
Sequence of Phosphatidylinositol 4,5-bisphosphate 3-kinase catalytic subunit alpha isoform (P42336 whole entry, canonical isoform): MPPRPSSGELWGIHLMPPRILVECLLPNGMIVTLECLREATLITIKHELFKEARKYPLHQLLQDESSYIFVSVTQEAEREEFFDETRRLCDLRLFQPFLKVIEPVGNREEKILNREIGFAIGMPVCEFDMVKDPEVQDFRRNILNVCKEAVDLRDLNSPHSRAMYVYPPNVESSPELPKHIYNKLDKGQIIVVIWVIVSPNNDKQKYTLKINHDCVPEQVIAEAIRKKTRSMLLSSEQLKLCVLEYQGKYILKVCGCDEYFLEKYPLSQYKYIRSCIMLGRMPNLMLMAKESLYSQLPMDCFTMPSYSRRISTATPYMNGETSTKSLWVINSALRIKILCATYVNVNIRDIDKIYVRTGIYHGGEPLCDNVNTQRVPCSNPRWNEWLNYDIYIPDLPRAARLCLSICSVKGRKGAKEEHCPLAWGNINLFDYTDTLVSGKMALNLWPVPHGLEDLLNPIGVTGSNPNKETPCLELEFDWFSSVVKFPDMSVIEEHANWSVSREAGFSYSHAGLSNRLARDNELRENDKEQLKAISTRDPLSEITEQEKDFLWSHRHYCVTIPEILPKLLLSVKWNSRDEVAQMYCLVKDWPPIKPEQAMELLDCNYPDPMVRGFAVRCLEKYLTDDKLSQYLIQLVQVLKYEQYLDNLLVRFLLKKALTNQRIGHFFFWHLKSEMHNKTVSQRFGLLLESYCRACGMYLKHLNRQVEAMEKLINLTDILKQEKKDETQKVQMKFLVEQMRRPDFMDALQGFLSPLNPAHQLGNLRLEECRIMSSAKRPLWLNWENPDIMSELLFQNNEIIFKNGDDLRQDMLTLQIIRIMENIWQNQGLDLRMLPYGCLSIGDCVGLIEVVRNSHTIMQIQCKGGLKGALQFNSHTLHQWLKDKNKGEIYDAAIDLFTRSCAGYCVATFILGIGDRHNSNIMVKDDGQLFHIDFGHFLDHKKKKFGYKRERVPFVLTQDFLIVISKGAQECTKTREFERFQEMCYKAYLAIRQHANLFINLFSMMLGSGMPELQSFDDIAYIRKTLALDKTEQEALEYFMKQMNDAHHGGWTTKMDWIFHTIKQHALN

[2] = target: Serine/threonine-protein kinase mTOR (Rattus norvegicus, UniProt P42346); experiment: Inhibition of rat derived mTOR using [gamma32P]ATP
[3] = target: T1, Phosphatidylinositol 4,5-bisphosphate 3-kinase catalytic subunit delta isoform (Homo sapiens, UniProt O00329)
T1 sequence (O00329 whole entry): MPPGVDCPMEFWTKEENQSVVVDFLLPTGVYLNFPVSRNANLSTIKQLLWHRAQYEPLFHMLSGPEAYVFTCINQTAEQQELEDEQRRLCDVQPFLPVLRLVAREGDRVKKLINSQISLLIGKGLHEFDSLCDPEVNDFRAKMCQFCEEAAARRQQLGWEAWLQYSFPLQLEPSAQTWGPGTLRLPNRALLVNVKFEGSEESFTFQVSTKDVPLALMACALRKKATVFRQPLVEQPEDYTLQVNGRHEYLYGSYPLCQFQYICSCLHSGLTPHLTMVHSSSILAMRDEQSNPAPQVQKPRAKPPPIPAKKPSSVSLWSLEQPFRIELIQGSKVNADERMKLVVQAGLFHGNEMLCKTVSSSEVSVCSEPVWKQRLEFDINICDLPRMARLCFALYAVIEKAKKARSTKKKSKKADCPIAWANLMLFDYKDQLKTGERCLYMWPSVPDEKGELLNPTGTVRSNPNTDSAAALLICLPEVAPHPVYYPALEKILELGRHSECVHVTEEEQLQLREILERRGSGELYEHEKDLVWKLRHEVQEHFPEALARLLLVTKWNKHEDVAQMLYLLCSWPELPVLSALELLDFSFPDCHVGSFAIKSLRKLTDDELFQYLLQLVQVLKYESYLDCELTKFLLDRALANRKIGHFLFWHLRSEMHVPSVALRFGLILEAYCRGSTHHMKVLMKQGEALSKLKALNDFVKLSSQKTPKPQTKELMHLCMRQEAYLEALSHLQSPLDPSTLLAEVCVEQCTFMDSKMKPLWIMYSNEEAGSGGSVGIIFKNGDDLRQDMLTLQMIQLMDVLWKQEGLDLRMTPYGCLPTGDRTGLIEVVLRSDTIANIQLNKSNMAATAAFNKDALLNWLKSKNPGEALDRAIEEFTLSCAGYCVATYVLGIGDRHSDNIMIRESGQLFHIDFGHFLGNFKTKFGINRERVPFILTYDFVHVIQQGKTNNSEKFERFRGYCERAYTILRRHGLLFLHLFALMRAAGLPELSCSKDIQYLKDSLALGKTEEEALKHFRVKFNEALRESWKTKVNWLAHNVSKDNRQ

[4] = target: T2, DNA-dependent protein kinase catalytic subunit (Homo sapiens, UniProt P78527); experiment: Inhibition of DNA-PK (unknown origin)
T2 sequence (P78527 whole entry): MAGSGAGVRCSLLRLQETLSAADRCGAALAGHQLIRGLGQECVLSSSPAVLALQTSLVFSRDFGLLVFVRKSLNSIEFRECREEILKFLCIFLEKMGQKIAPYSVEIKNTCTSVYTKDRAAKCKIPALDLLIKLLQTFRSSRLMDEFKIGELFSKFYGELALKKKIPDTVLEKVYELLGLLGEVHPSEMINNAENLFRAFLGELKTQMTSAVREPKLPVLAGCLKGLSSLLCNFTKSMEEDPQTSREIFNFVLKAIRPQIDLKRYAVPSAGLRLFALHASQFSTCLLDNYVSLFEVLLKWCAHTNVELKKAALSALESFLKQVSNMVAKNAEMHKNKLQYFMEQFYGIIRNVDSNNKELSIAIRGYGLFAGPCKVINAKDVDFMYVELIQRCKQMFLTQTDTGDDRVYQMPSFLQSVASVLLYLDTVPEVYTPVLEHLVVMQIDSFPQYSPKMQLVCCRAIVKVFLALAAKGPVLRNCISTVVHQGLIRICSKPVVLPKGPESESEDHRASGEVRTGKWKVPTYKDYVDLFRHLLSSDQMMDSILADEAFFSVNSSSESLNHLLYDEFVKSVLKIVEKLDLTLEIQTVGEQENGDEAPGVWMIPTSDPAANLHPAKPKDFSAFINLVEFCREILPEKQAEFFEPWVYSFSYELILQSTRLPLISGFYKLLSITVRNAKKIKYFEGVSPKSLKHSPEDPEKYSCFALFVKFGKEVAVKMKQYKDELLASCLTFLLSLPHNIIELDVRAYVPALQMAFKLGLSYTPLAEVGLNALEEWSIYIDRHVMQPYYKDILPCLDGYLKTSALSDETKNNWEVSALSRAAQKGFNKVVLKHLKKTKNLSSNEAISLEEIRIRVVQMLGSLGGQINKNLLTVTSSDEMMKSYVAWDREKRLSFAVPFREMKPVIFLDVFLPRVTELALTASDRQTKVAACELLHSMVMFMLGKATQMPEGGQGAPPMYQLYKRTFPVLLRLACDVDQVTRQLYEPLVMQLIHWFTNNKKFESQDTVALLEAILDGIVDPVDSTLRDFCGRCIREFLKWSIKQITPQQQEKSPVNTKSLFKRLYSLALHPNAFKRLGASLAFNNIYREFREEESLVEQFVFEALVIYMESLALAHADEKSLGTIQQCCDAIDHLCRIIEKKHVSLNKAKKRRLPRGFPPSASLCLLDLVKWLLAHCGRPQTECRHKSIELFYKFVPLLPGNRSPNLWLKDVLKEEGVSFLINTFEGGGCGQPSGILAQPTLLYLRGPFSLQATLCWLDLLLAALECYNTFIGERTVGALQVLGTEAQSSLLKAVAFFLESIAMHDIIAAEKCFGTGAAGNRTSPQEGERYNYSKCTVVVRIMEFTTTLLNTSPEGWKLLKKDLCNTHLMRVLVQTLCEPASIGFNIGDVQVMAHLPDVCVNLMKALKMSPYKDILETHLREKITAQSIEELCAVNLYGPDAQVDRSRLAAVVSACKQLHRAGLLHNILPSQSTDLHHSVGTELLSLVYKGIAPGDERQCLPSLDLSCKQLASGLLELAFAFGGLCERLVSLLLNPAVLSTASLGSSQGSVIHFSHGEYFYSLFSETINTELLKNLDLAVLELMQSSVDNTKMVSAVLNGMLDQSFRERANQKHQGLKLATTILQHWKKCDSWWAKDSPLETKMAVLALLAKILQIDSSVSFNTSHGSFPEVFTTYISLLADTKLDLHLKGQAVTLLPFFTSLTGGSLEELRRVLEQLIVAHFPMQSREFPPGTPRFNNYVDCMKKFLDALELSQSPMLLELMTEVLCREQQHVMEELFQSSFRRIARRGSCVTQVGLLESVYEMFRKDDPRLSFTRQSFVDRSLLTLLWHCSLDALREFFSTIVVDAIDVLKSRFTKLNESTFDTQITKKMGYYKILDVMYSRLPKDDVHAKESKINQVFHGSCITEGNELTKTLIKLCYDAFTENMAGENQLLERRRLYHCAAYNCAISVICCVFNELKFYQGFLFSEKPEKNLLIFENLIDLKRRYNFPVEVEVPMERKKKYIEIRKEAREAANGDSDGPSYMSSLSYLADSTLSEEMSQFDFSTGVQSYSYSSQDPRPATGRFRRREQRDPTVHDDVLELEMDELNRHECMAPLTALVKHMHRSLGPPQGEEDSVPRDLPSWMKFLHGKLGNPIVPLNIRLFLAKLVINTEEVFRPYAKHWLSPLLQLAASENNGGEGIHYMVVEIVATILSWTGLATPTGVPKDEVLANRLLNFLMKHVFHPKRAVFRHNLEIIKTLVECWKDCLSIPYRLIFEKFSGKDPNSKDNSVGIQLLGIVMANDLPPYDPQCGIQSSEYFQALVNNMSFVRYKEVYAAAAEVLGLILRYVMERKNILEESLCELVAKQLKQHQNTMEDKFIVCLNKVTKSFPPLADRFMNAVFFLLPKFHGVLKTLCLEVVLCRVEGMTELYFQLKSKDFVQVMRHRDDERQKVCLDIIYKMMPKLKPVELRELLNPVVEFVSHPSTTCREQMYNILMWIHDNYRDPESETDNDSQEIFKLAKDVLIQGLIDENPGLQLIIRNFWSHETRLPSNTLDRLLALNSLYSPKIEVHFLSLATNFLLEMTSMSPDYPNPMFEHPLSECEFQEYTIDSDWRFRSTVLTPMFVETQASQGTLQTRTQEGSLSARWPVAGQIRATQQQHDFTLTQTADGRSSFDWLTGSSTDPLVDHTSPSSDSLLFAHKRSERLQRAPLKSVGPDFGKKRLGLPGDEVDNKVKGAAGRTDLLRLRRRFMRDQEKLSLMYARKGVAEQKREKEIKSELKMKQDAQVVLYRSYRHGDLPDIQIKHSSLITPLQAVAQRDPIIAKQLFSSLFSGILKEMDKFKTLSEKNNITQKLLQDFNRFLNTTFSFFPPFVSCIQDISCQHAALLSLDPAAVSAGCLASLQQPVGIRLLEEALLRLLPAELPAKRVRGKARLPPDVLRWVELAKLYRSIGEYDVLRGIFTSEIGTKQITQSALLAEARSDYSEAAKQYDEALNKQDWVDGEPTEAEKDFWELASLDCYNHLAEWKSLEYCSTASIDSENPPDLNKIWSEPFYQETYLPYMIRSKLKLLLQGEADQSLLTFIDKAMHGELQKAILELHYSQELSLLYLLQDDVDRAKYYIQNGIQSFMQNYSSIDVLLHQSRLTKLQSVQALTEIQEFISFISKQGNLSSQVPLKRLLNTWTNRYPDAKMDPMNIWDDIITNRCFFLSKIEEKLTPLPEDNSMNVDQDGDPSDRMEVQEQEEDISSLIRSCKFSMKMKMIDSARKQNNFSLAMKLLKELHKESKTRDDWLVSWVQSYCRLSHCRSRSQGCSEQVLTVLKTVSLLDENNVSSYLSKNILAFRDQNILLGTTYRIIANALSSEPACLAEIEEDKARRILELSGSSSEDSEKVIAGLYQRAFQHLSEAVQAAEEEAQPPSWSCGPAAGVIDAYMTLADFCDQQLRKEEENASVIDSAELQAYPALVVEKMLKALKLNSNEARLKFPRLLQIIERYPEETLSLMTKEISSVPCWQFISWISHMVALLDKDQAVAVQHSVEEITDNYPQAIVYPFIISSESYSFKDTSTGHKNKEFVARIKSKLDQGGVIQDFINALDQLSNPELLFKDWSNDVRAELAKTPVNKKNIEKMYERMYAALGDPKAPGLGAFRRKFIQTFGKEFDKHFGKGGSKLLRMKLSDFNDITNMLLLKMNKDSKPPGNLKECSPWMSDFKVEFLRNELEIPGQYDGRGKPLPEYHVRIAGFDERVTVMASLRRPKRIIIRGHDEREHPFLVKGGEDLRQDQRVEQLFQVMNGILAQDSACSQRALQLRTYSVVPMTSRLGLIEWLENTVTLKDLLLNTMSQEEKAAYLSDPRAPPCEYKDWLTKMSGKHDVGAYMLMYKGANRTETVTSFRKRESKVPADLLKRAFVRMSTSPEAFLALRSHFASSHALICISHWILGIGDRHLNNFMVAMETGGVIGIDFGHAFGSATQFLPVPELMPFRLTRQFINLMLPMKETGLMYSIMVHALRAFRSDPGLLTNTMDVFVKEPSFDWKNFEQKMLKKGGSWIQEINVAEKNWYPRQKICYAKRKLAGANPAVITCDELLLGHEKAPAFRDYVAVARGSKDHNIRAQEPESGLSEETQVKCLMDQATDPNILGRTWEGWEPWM

[5] = Oral bioavailability in BALB/C mouse; assay type: ADME, organism-based; conditions: in vivo
[6] = Half life in BALB/C mouse; assay type: ADME, organism-based; conditions: in vivo
[7] = target: Serine/threonine-protein kinase mTOR (Homo sapiens, UniProt P42345); experiment: Inhibition of mTOR (unknown origin)
[8] = Oral bioavailability in mouse; assay type: ADME, organism-based; conditions: in vivo
[9] = test system: MDA-MB-361; experiment: cells; conditions: Homo sapiens
[10] = target: T2, DNA-dependent protein kinase catalytic subunit; experiment: Inhibition of DNA-PK purified from HeLa nuclear extracts assessed as EPPLSQEAFADLWKKR peptide substrate phosphorylation
[11] = Half life in mouse plasma at 25 mg/kg single dose; assay type: ADME, organism-based; design: dose 25 mg/kg
[12] = Inhibition of rapamycin-insensitive mTORC2 (unknown origin); design: species or system Homo sapiens

IC50 [1]: 1300 nM
SMILES: Oc1ccc2nc(-c3ccccc3)nc(N3CCOCC3)c2c1

IC50 [2]: 2500 nM | IC50 [3]: 1600 nM
SMILES: O=c1cc(N2CCOCC2)oc2c(-c3ccccc3)cccc12 [LY-294002]

IC50 [4]: 5 nM and 14 nM
SMILES: Cc1ccc2c(=O)cc(N3CCOCC3)oc2c1-c1cccc2c1sc1ccccc12

IC50 [4]: 13 nM
SMILES: O=c1cc(N2CCOCC2)nc2c(-c3cccc4c3sc3ccccc34)cccn12

IC50 [10]: 34 nM
SMILES: O=c1cc(-c2ccccc2)oc2cc(N3CCOCC3)cc(O)c12

IC50 [4]: 41 nM
SMILES: O=c1cc(N2CCOCC2)oc2c(-c3cccc4c3oc3ccccc34)cccc12

IC50 [12]: 83 nM
SMILES: Oc1cccc(-c2nc(N3CCOCC3)c3oc4ncccc4c3n2)c1 [PI-103]

Second part, the compound before the results:

SMILES: Cc1nc2c(-c3cnc(N)nc3)nc(N3CCOCC3)nc2n1C(C)C [VS-5584]
bioavailability [5]: 100% | half-life [6]: 10 h

SMILES: CCn1nnc2c(N3CCOCC3)nc(-c3ccc(NC(=O)Nc4ccc(C(=O)N5CCN(C)CC5)cc4)cc3)nc21
IC50 [7]: 3 nM | bioavailability [8]: 88.6% | IC50 [9]: 10 nM

SMILES: CN(C)C1CCN(C(=O)c2ccc(NC(=O)Nc3ccc(-c4nc(N5CCOCC5)nc(N5CCOCC5)n4)cc3)cc2)CC1 [GEDATOLISIB]
half-life [11]: 3.5 h

SMILES: COc1ccc2oc(=O)cc(N3CCOCC3)c2c1
IC50 [4]: 1200 nM

SMILES: O=C(c1ccc(O)cc1)c1ccc(N2CCOCC2)cc1O
IC50 [10]: 35 nM

SMILES: CNC(=O)Nc1ccc(-c2nc(N3CCOCC3)nc3c2cnn3C2CCOCC2)cc1
IC50 [7]: 23 nM

SMILES: Cc1cc(C(C)Nc2ccccc2)c2nc(N3CCOCC3)cc(=O)n2c1 (stereo not drawn)
IC50 [1]: > 1000 nM
